ChEMBL document CHEMBL1125191, “Synthesis, stereochemistry, and biological activity of the 1-(1-phenyl-2-methylcyclohexyl)piperidines and the 1-(1-phenyl-4-methylcyclohexyl)piperidines. Absolute configuration of the potent trans-(-)-1-(1-phenyl-2-methylcyclohexyl)piperidine” (J Med Chem, 1991)

What was measured:
Mus musculus [1] = test: ED50 value by rotarod test on mice at different dosage levels upon subcutaneous administration; assay type: functional; details: sc
[2] = target: T1, Glutamate receptor ionotropic, NMDA 1 (Rattus norvegicus, UniProt P35439); test: Binding affinity by displacement of [3H]TCP from PCP N-methyl-D-aspartate glutamate receptor of tissue homogenate preparation of rat brain without cerebellum; assay type: tissue-based
[3] = target: T1, Glutamate receptor ionotropic, NMDA 1; test: Binding affinity by displacement of [3H]TCP from PCP N-methyl-D-aspartate glutamate receptor of tissue homogenate preparation of rat brain without cerebellum (in vitro); assay type: tissue-based
Mus musculus [4] = test: Effective dose after subcutaneous administration using rotarod test in mice; assay type: functional

Row | Compound | ED50 (Mus musculus [1]) [mg/kg] | Ki [2] [µM] | Ki [3] [µM] | ED50 (Mus musculus [4]) [mg/kg] | ED50 (Mus musculus [4]; Mus musculus, sc, read-out: ED50) [mg/kg]
1 | N=C(c1ccccc1)C1(N2CCCCC2)CCCCC1 | > 100 | 31 |  |  | 
2 | CC1CCCCC1(C(=N)c1ccccc1)N1CCCCC1 (cis isomer) | > 100 | 4.7 |  |  | 
3 | CC1CCCCC1(c1ccccc1)N1CCCCC1 (stereo in doubt; 3) |  |  | 7.4 | >150 | 
4 | CC1CCC(c2ccccc2)(N2CCCCC2)CC1 (stereo in doubt; 17) |  |  | 0.617 | >150 | 
5 | CC1CCC(c2ccccc2)(N2CCCCC2)CC1 (stereo in doubt; 18) |  |  | 0.166 | 5.5 | 
6 | CC1CCCCC1(c1ccccc1)N1CCCCC1 (stereo in doubt; (+)-2) |  |  | 0.1 | 7.5 | 
7 | CC1CCCCC1(c1ccccc1)N1CCCCC1 (stereo in doubt; (+)-3) |  |  | 2.94 | >100 | 
8 | CC1CCCCC1(c1ccccc1)N1CCCCC1 (stereo in doubt; (-)-2) |  |  | 0.011 | 1.9 | 
9 | CC1CCCCC1(c1ccccc1)N1CCCCC1 (stereo in doubt; (-)-3) |  |  | 2.18 |  | 
10 | CC1CCCCC1(c1ccccc1)N1CCCCC1 (trans isomer) |  |  | 0.025 | 3.3 | 
11 | CC1CCCCC1(C(=N)c1ccccc1)N1CCCCC1 (trans isomer) |  | 23 |  |  | 
12 | c1ccc(C2(N3CCCCC3)CCCCC2)cc1 [PHENCYCLIDINE] |  |  | 0.053 |  | 4
